In patent publication US4341784A, “Naphthyridine derivatives” (priority 1979, dated 1982):
“Also recorded” adds a separate entry of the source.

What was measured:
[1] = tested on: Escherichia coli P-5101; assay: In vivo efficacy against systemic infections in mice (intraperitoneal infection); design: species or system male mice (ddY); conditions: P5101, 168 h, po, twice, about 5 minutes and 6 hours after intraperitoneal infection, observed 7 days
Procedure: (§1) Each of the solutions was orally administered to mice infected with each of test organisms under the conditions described below, and the medium effective doses (ED50) obtained are shown in Table II. Male mice (ddY) weighing about 20 g (3) Escherichia coli P-5101: Intraperitoneal infection with about 9×10^6 cells per mouse suspended in trypto-soy broth with 4% mucin. Twice, about 5 minutes and 6 hours after infection. |Escherichia coli P-5101 for 7 days | The numerals in the table show ED50 (mg/kg). ED50 values were | calculated in accordance with the BehrensKaerber method (Arch. Exp. Path. | Pharm., 162, 480 (1931)). | po: oral administration.

[2] = tested on: Gram-positive and Gram-negative bacteria including Pseudomonas aeruginosa; assay: In vivo efficacy against systemic infections, overall; design: species or system male mice (ddY); conditions: for therapeutic effect on systemic infections (in words): Gram-positive and Gram-negative bacteria; for therapeutic effect compared with Compound C (in words): systemic infections with Gram-negative bacteria including Pseudomonas aeruginosa
Procedure: Compounds 1, 2 and C were each dissolved in deionized water or suspended in a 0.2% aqueous solution of CMC. Each of the solutions was orally administered to mice infected with each of test organisms under the conditions described below, and the medium effective doses (ED50) obtained are shown in Table II.
Male mice (ddY) weighing about 20 g
Twice, about 5 minutes and 6 hours after infection.

[3] = tested on: Staphylococcus aureus No. 50774; assay: In vivo efficacy against systemic infections in mice (intravenous infection); design: species or system male mice (ddY); conditions: NO.50774, 336 h, po, twice, about 5 minutes and 6 hours after intravenous infection, observed 14 days
Procedure: as §1, with “(1) Staphylococcus aureus No. 50774: Intravenous” for “(3) Escherichia coli P-5101: Intraperitoneal”, “5×10^8” for “9×10^6”, “saline.” for “trypto-soy broth with 4% mucin.”, “|Staphylococcus aureus No. 50774 |” for “|Escherichia coli P-5101”, “14” for “7”

[4] = in vivo; conditions: for LD50 at 168 h: mouse, in vivo, po; for acute oral toxicity (in words): hydrochloride
Procedure: A solution containing each of Compounds 1 and 2 of this invention in various concentrations was orally given to male mice (ddY) at a dose of 0.1 ml per 10 g of body weight. The number of dead mice was counted after 7 days, and the value of median lethal dose (LD50, mg/kg) was calculated in accordance with the Behrens-Kaerber method.

[5] = Acute toxicity in intravenous injection

For `CCn1cc(C(=O)O)c(=O)c2cc(F)c(N3CCC(N)C3)nc21.Cl` (stereo not shown) [Compound 1, 7-(3-Amino-1-pyrrolidinyl)-1-ethyl-6-fluoro-1,4-dihydro-4-oxo-1,8-naphthyridine-3-carboxylic acid hydrochloride], the ED50 [1] was 1.7 mg/kg, the “therapeutic effect on systemic infections (in words)” value [2] was “potent therapeutic effects” and the “therapeutic effect compared with Compound C (in words)” value [2] was “better therapeutic effects”. For the same molecule, the ED50 [3] was 3 mg/kg, the LD50 at 168 h [4] was over 2000 mg/kg and the “acute oral toxicity (in words)” value [4] was “very weak; also recorded: low oral toxicity”.
In the case of `CCn1cc(C(=O)O)c(=O)c2cc(F)c(N3CCC(NC)C3)nc21.Cl` (stereo not shown) [Compound 2, 1-Ethyl-6-fluoro-1,4-dihydro-7-(3-methylamino-1-pyrrolidinyl)-4-oxo-1,8-naphthyridine-3-carboxylic acid hydrochloride], the ED50 [1] is reported as 1.4 mg/kg, the “therapeutic effect on systemic infections (in words)” value [2] is reported as “potent therapeutic effects” and the “therapeutic effect compared with Compound C (in words)” value [2] is reported as “better therapeutic effects”. For the same molecule, the ED50 [3] was 4.8 mg/kg, the “acute toxicity in intravenous injection compared with Compound 1 (in words)” value [5] was “lower acute toxicity in intervenous injection than Compound 1” and the LD50 at 168 h [4] was over 2000 mg/kg. The “acute oral toxicity (in words)” value [4] was “very weak; also recorded: low oral toxicity”.
